Patent US20250120960A1, “Compositions and Methods for Treatment of Inflammatory Bowel Disease” (Nocion Therapeutics, Inc., priority 2022, published 2025)

Assays:
[1] = test system: DSS mouse model of ulcerative colitis; assay: DSS mouse model of ulcerative colitis: Disease Activity Index, plasma and colon cytokines, colon histopathology; assay type: in vivo, mice; settings: for amount of crypt damage (colon histopathology) / colon IL-15 level increased by DSS / colon KC level increased by DSS / colon RANTES level increased by DSS / degree of inflammatory infiltrate (colon histopathology) / layer to which the infiltration extended (extent of infiltration, colon histopathology): colon collected day 7; for improvement (reduction) in the Disease Activity Index (DAI): mice given 2.5% DSS in drinking water for 6 days, NTX 1170 100 mg/kg QD PO, infliximab 5 mg/kg QD IP, tofacitinib 5 mg/kg BID PO
Description: (§1) Body weights, stool consistency and the presence of blood in the stool were measured over the 6 days and comprised the Disease Activity Index (DAI). On day 7 the study was terminated, and the colon and plasma were collected for cytokine measurements, histology evaluation and for pharmacokinetic (PK) analysis.

[2] = Pharmacokinetic (PK) analysis of terminal plasma and colon samples in DSS mice; assay type: in vivo; settings: 100 mg/kg QD PO
Description: as §1

[3] = plasma collected day 7, 2.5% DSS 6 days

In the case of `Cc1cccc(C)c1NC(=O)C[N+]1(Cc2ccccc2)CCCCC1.[Br-]` [NTX-1170], the “amount of crypt damage (colon histopathology)” value ([1]; 2.5% DSS 6 days) is reported as “significantly reduced”, the “colon IL-15 level increased by DSS” value ([1]; 2.5% DSS 6 days) is reported as “significantly reduced” and the “colon KC level increased by DSS” value ([1]; 2.5% DSS 6 days) is reported as “significantly reduced”. The “colon RANTES level increased by DSS” value ([1]; 2.5% DSS 6 days) was “significantly reduced”, the “degree of inflammatory infiltrate (colon histopathology)” value ([1]; 2.5% DSS 6 days) was “significantly reduced” and the “layer to which the infiltration extended (extent of infiltration, colon histopathology)” value ([1]; 2.5% DSS 6 days) was “significantly reduced”. For the same molecule, the “improvement (reduction) in the Disease Activity Index (DAI)” value [1] was 60%, the “plasma G-CSF level upregulated by DSS” value [1, 3] was “significantly reduced” and the “plasma IP-10 level upregulated by DSS” value [1, 3] was “significantly reduced”. For the same molecule, the “plasma MIG level upregulated by DSS” value [1, 3] was “significantly reduced”, the “plasma Mip-1β level upregulated by DSS” value [1, 3] was “significantly reduced” and the “plasma TNF-α level upregulated by DSS” value [1, 3] was “significantly reduced”. The Kp ([2]; mouse, colon and plasma, terminal samples, read-out: colon/plasma ratio) was over 3500, the “level of compound in the colon” value ([2]; terminal colon sample) was “high levels” and the “level of compound in the plasma” value ([2]; terminal plasma sample) was “very low levels”.
With `C[C@@H]1CCN(C(=O)CC#N)C[C@@H]1N(C)c1ncnc2[nH]ccc12` [tofacitinib] the “colon IL-15 level increased by DSS” value ([1]; 2.5% DSS 6 days) was “neither tofacitinib nor infliximab significantly reduced”, the “colon KC level increased by DSS” value ([1]; 2.5% DSS 6 days) was “neither tofacitinib nor infliximab significantly reduced” and the “colon RANTES level increased by DSS” value ([1]; 2.5% DSS 6 days) was “neither tofacitinib nor infliximab significantly reduced”. For the same molecule, the “layer to which the infiltration extended (extent of infiltration, colon histopathology)” value ([1]; 2.5% DSS 6 days) was “reduced”, the “improvement (reduction) in the Disease Activity Index (DAI)” value [1] was 38% and the “plasma G-CSF level upregulated by DSS” value [1, 3] was “significantly reduced”. The “plasma MIG level upregulated by DSS” value [1, 3] was “significantly reduced”, the “plasma Mip-1β level upregulated by DSS” value [1, 3] was “significantly reduced” and the “plasma TNF-α level upregulated by DSS” value [1, 3] was “significantly reduced”.
For infliximab, the “amount of crypt damage (colon histopathology)” value ([1]; 2.5% DSS 6 days) was “no significant effect”, the “colon IL-15 level increased by DSS” value ([1]; 2.5% DSS 6 days) was “neither tofacitinib nor infliximab significantly reduced” and the “colon KC level increased by DSS” value ([1]; 2.5% DSS 6 days) was “neither tofacitinib nor infliximab significantly reduced”. The “colon RANTES level increased by DSS” value ([1]; 2.5% DSS 6 days) was “neither tofacitinib nor infliximab significantly reduced”, the “degree of inflammatory infiltrate (colon histopathology)” value ([1]; 2.5% DSS 6 days) was “no significant effect” and the “layer to which the infiltration extended (extent of infiltration, colon histopathology)” value ([1]; 2.5% DSS 6 days) was “no significant effect”. The “plasma G-CSF level upregulated by DSS” value [1, 3] was “reduced”, the “plasma Mip-1β level upregulated by DSS” value [1, 3] was “reduced” and the “plasma TNF-α level upregulated by DSS” value [1, 3] was “reduced”.
